Results as given in US3985738A, “7-(D-. alpha.-Hydroxy-2-arylacetamido)-3-(tetrazolo-[4,5-b]pyridazin-6-ylthiomet hyl)-3-cephem-4-carboxylic acids” (Bristol-Myers Company, priority 1974, dated 1976).
Converted amounts (≈) assume the structure as drawn.

Tests used:
Assay in all cases: In vitro antibacterial activity, tube dilution method (Nutrient Broth)
Assay type in all cases: cell-based
Dip. pneumoniae = conditions: Streptococcus pneumoniae
Description: (§1) In vitro Antibacterial Activity of BB-S266 by Tube Dilution Method (Nutrient Broth).

E. coli ATCC 8739 = conditions: Escherichia coli, ATCC8739
Description: as §1

E. coli Juhl A15119 = conditions: Escherichia coli, JUHLA15119
Description: as §1

E. coli NIHJ = conditions: Escherichia coli
Description: as §1

Kl. pneumoniae A15130 = conditions: Klebsiella pneumoniae
Description: as §1

Kl. pneumoniae A9977 = conditions: Klebsiella pneumoniae
Description: as §1

Mycobacterium 607 = system: Mycobacterium 607
Description: as §1

Pr. mirabilis A9900 = conditions: Proteus mirabilis
Description: as §1

Pr. morganii A15153 = conditions: Morganella morganii
Description: as §1

Ps. aeruginosa A9843 = conditions: Pseudomonas aeruginosa
Description: as §1

S. aureus BX-1633 = conditions: Staphylococcus aureus, BX1633
Description: as §1

S. aureus Russel = conditions: Staphylococcus aureus
Description: as §1

S. aureus Smith = conditions: Staphylococcus aureus
Description: as §1

Sal. enteritidis A9531 = conditions: Salmonella enterica
Description: as §1

Ser. marcescens A20019 = conditions: Serratia marcescens
Description: as §1

St. pyogenes A9604 = conditions: Streptococcus pyogenes
Description: as §1

SMILES: O=C(O)C1=C(CSc2ccc3nnnn3n2)CS[C@@H]2C(NC(=O)[C@H](O)c3ccccc3)C(=O)N12 (stereo partly drawn) [BB-S266, 7-(D-α-HYDROXY-α-PHENYLACETAMIDO)-3-(TETRAZOLO[4,5-B]PYRIDAZIN-6-YLTHIOMETHYL)-3-CEPHEM-4-CARBOXYLIC ACID]
- MIC (Dip. pneumoniae): 0.01 µg/mL (≈ 0.02 µM)
- MIC (E. coli ATCC 8739): 1.6 µg/mL (≈ 3.2 µM)
- MIC (E. coli Juhl A15119): 3.1 µg/mL (≈ 6.21 µM)
- MIC (E. coli NIHJ): 0.08 µg/mL (≈ 0.16 µM)
- MIC (Kl. pneumoniae A15130): 3.1 µg/mL (≈ 6.21 µM)
- MIC (Kl. pneumoniae A9977): 3.1 µg/mL (≈ 6.21 µM)
- MIC (Mycobacterium 607): < 100 µg/mL
- MIC (Pr. mirabilis A9900): 6.3 µg/mL (≈ 12.6 µM)
- MIC (Pr. morganii A15153): 50 µg/mL (≈ 100 µM)
- MIC (Ps. aeruginosa A9843): < 100 µg/mL
- MIC (S. aureus BX-1633): 0.8 µg/mL (≈ 1.6 µM)
- MIC (S. aureus Russel): 0.4 µg/mL (≈ 0.801 µM)
- MIC (S. aureus Smith; S. aureus Smith): 0.1 µg/mL (≈ 0.2 µM)
- MIC (S. aureus Smith; S. aureus Smith + 50% serum): 0.2 µg/mL
- MIC (Sal. enteritidis A9531): 0.4 µg/mL (≈ 0.801 µM)
- MIC (Ser. marcescens A20019): 100 µg/mL (≈ 200 µM)
- MIC (St. pyogenes A9604): 0.01 µg/mL (≈ 0.02 µM)
